Results on one compound are retold here after patent publication US9241927B2, “Pharmaceutical compositions comprising sigma receptor ligands” (Laboratories Del Dr, Esteve, S.A., priority 2009, dated 2016).

The nature of series [1]: pH solubility profile of API-001. The class given is physicochemical. An excerpt: (§1) API-001 has a pKa 6.8, being a weakly basic drug and having a solubility strongly influenced by pH of the medium.
Therefore, it is expected that the extrusion-spheronization pellets of the invention to be absorbed over all the intestinal tract.

A further series in a line: pKa of API-001. The class given is physicochemical.
Excerpt: as §1

As to `Cc1cc(OCCN2CCOCC2)nn1-c1ccc2ccccc2c1.Cl` [API-001, 4-{2-[5-Methyl-1-(naphthalen-2-yl)-1H-pyrazol-3-yloxy]ethyl}morpholine hydrochloride], in series [1] (FIG. 2), the pH solubility profile result is recorded as “solubility of API-001 is decreasing when is increasing the pH of the medium”. The compound further displayed a solubility in series [1] (pH 6.8, aqueous buffer) of 600 µg/mL. In “pKa of API-001”, this compound showed a pKa of 6.8.
